Test results taken from BindingDB's records for doi:10.1111/cbdd.12596 (Nanjing University, 2015).

What was measured:
Test in all cases: VEGFR2 Kinase Assay
Conditions in all cases: pH 7.2; 25 °C
[1] = biological target: Vascular endothelial growth factor receptor 2 (Homo sapiens, UniProt P35968)
Description: VEGFR kinase assays were set up to assess the level of autophosphorylation based on DELFIA/Time-Resolved Fluorometry. 96-well plates were coated at room temperature for 1-2 h with 100 μL per well of 25 μg mL−1 poly-(Glu4-Tyr) peptide (Sigma) in Tris-buffered saline (TBS) (25 mM Tris, pH 7.2, 150 mM NaCl). Unbound peptide was washed three times with PBS. The cytoplasmic domain of VEGFR-2 enzyme was diluted (depending on the specific activity of the batch, from 10- to 20-fold) in 0.1% BSA/4 mM HEPES. […] Controls were done by adding DMSO alone, i.e., no test compound, to wells containing the master mix of enzyme plus kinase buffer. After 15 min at room temperature, ATP/MgCl2 (20 μL of

[2] = biological target: Epidermal growth factor receptor (Homo sapiens, UniProt P00533)
Epidermal growth factor receptor, sequence (P00533 whole entry): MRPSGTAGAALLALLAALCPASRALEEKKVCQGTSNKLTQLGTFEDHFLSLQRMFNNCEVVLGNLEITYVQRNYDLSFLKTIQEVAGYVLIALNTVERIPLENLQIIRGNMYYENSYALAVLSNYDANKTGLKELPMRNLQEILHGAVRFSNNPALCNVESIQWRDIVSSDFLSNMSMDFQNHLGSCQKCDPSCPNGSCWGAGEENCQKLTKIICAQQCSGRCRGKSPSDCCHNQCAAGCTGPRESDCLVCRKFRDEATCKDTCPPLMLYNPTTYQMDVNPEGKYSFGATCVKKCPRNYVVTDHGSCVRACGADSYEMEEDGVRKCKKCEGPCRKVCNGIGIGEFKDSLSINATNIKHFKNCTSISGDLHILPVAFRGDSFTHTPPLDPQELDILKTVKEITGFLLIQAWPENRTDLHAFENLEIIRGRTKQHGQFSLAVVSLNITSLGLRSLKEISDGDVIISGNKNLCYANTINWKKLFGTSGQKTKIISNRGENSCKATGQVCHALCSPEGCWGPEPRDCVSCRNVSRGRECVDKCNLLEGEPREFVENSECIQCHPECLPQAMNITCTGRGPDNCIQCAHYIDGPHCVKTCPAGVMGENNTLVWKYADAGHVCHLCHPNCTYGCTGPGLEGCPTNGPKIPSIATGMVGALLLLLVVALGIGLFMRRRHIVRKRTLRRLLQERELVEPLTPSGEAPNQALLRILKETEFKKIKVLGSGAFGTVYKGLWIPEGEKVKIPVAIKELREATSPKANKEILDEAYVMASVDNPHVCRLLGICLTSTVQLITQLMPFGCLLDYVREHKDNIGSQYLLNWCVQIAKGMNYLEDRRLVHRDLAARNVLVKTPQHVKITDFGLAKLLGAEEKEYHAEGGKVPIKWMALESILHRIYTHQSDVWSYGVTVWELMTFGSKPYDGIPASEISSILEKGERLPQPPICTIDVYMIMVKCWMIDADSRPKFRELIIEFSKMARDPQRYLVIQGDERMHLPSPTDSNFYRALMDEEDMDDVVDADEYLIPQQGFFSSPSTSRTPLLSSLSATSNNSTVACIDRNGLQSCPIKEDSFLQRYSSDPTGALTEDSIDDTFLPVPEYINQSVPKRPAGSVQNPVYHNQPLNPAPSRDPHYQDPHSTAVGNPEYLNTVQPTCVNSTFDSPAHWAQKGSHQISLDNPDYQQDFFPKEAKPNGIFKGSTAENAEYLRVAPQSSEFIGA

[3] = biological target: Fibroblast growth factor 2 (Homo sapiens, UniProt P09038)

Vascular endothelial growth factor receptor 2, sequence (P35968 whole entry, the tested form may be a part): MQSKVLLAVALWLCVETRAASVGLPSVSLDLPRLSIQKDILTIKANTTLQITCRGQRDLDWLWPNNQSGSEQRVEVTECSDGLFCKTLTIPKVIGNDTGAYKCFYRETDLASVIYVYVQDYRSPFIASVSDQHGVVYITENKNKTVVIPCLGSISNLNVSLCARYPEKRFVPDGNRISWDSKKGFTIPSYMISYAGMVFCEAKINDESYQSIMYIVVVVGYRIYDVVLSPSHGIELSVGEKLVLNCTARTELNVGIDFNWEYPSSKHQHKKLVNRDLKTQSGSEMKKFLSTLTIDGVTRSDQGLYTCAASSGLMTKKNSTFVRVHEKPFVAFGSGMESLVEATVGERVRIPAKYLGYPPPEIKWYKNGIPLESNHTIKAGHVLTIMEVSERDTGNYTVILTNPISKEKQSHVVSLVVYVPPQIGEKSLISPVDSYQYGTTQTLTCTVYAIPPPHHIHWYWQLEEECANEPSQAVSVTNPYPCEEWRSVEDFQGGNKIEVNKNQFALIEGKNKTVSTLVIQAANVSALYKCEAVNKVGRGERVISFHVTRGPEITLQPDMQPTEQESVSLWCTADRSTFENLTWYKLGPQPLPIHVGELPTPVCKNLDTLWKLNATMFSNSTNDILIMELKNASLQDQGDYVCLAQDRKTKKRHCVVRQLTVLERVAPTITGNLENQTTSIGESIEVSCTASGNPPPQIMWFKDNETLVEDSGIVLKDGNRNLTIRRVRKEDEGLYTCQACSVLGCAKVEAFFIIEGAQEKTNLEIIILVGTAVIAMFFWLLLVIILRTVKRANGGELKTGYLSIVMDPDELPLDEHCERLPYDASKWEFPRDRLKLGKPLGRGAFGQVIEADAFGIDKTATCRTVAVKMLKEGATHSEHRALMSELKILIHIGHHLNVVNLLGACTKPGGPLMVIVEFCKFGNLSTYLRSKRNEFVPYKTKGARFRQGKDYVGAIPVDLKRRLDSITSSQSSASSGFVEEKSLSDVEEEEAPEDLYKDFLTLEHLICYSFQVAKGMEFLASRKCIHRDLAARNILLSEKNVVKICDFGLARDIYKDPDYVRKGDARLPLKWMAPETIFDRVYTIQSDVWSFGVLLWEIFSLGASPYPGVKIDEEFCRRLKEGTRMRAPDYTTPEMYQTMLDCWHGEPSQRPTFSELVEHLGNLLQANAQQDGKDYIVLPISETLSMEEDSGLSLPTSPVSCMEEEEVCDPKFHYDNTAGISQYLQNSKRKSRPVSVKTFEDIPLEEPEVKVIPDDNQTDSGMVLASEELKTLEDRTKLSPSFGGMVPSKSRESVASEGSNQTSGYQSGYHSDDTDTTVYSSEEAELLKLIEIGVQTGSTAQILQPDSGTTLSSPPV

| SMILES | IC50 [1] [nM] | IC50 [2] [nM] | IC50 [3] [nM] |
| --- | --- | --- | --- |
| OC(COc1ncnc2ccccc12)Cn1ccnc1 (configuration not stated) [1-(1H-Imidazol-1-yl)-3-(quinazolin-4-yloxy)propan-2-ol (3t)] | 84.3 | 483 | 609 |
| Cc1nccn1CC(O)COc1ncnc2ccccc12 (configuration not stated) [1-(2-Methyl-1H-imidazol-1-yl)-3-(quinazolin-4-yloxy)propan-2-ol (3u)] | 55.7 | 444 | 586 |
| OC(COc1ncnc2ccccc12)CN1CCN(c2cccc(Cl)c2Cl)CC1 (configuration not stated) [1-(4-(2,3-Dichlorophenyl)piperazin-1-yl)-3-(quinazolin-4-yloxy)propan-2-ol (3k)] | 47.7 | 409 | 398 |
| Cc1ccc(N2CCN(CC(O)COc3ncnc4ccccc34)CC2)c(C)c1 (configuration not stated) [1-(4-(2,4-Dimethylphenyl)piperazin-1-yl)-3-(quinazolin-4-yloxy)propan-2-ol (3m)] | 12.4 | 395 | 222 |
| OC(COc1ncnc2ccccc12)CN1CCN(c2ccccc2F)CC1 (configuration not stated) [1-(4-(2-Fluorophenyl)piperazin-1-yl)-3-(quinazolin-4-yloxy)propan-2-ol (3d)] | 34.7 | 409 | 372 |
| OC(COc1ncnc2ccccc12)CN1CCN(c2cccc(Cl)c2)CC1 (configuration not stated) [1-(4-(3-Chlorophenyl)piperazin-1-yl)-3-(quinazolin-4-yloxy)propan-2-ol (3c)] | 47.4 | 413 | 402 |
| COc1cccc(N2CCN(CC(O)COc3ncnc4ccccc34)CC2)c1 (configuration not stated) [1-(4-(3-Methoxyphenyl)piperazin-1-yl)-3-(quinazolin-4-yloxy)propan-2-ol (3h)] | 2.89 | 208 | 103 |
| OC(COc1ncnc2ccccc12)CN1CCN(c2ccc(F)cc2)CC1 (configuration not stated) [1-(4-(4-Fluorophenyl)piperazin-1-yl)-3-(quinazolin-4-yloxy)propan-2-ol (3e)] | 21.8 | 403 | 300 |
| COc1ccc(N2CCN(CC(O)COc3ncnc4ccccc34)CC2)cc1 (configuration not stated) [1-(4-(4-Methoxyphenyl)piperazin-1-yl)-3-(quinazolin-4-yloxy)propan-2-ol (3i)] | 3.42 | 276 | 122 |
| Cc1cn(CC(O)COc2ncnc3ccccc23)cn1 (configuration not stated) [1-(4-Methyl-1H-imidazol-1-yl)-3-(quinazolin-4-yloxy)propan-2-ol (3v)] | 74.2 | 452 | 592 |
| OC(COc1ncnc2ccccc12)CN1CCN(c2ccccc2)CC1 (configuration not stated) [1-(4-Phenylpiperazin-1-yl)-3-(quinazolin-4-yloxy)propan-2-ol (3a)] | 32.6 | 400 | 293 |
| OC(COc1ncnc2ccccc12)CN1CCCCC1 (configuration not stated) [1-(Piperidin-1-yl)-3-(quinazolin-4-yloxy)propan-2-ol (3s)] | 78.5 | 474 | 593 |
| OC(COc1ncnc2ccccc12)CN1CCOCC1 (configuration not stated) [1-Morpholino-3-(quinazolin-4-yloxy)propan-2-ol (3r)] | 81.7 | 483 | 602 |
| COc1cc2nccc(Oc3ccc(NC(=O)Nc4cc(C)on4)c(Cl)c3)c2cc1OC [Tivozanib] |  |  | 114 |

Further molecules by falling IC50 [3], results first:

| IC50 [1] [nM] | IC50 [2] [nM] | IC50 [3] [nM] | SMILES |
| --- | --- | --- | --- |
| 63 | 455 | 582 | CN(C)CC(O)COc1ncnc2ccccc12 (configuration not stated) [1-(Dimethylamino)-3-(quinazolin-4-yloxy)propan-2-ol (3q)] |
| 54.4 | 462 | 519 | CCN1CCN(CC(O)COc2ncnc3ccccc23)CC1 (configuration not stated) [1-(4-Ethylpiperazin-1-yl)-3-(quinazolin-4-yloxy)propan-2-ol (3p)] |
| 49.8 | 418 | 506 | OC(COc1ncnc2ccccc12)CN1CCN(c2ccccc2Cl)CC1 (configuration not stated) [1-(4-(2-Chlorophenyl)piperazin-1-yl)-3-(quinazolin-4-yloxy)propan-2-ol (3b)] |
| 52.2 | 435 | 444 | OC(COc1ncnc2ccccc12)CN1CCN(Cc2ccccc2)CC1 (configuration not stated) [1-(4-Benzylpiperazin-1-yl)-3-(quinazolin-4-yloxy)propan-2-ol (3n)] |
| 59.3 | 474 | 419 | CN1CCN(CC(O)COc2ncnc3ccccc23)CC1 (configuration not stated) [1-(4-Methylpiperazin-1-yl)-3-(quinazolin-4-yloxy)propan-2-ol (3o)] |
| 16.5 | 382 | 248 | O=[N+]([O-])c1ccc(N2CCN(CC(O)COc3ncnc4ccccc34)CC2)cc1 (configuration not stated) [1-(4-(4-Nitrophenyl)piperazin-1-yl)-3-(quinazolin-4-yloxy)propan-2-ol (3f)] |
| 9.98 | 357 | 209 | COc1ccccc1N1CCN(CC(O)COc2ncnc3ccccc23)CC1 (configuration not stated) [1-(4-(2-Methoxyphenyl)piperazin-1-yl)-3-(quinazolin-4-yloxy)propan-2-ol (3g)] |
| 8.42 | 344 | 178 | OC(COc1ncnc2ccccc12)CN1CCN(c2ccc(Cl)c(Cl)c2)CC1 (configuration not stated) [1-(4-(3,4-Dichlorophenyl)piperazin-1-yl)-3-(quinazolin-4-yloxy)propan-2-ol (3l)] |
| 4.98 | 307 | 145 | OC(COc1ncnc2ccccc12)CN1CCN(c2cccc(C(F)(F)F)c2)CC1 (configuration not stated) [1-(4-(3-(Trifluoromethyl)phenyl)piperazin-1-yl)-3-(quinazolin-4-yloxy)propan-2-ol (3j)] |
